This is an account of results in patent US20080233127A1, “IMIDAZOLOPYRIMIDINE ANALOGS AND THEIR USE AS PI3 KINASE AND MTOR INHIBITORS” (Wyeth, priority 2007, published 2008).

For one experiment, the target named is T1, human TOR (Homo sapiens, UniProt P42345).
T1 construct: FLAG
Briefly: mTOR enzyme assay (DELFIA format, purified FLAG-TOR, His6-S6K substrate). It counts as biochemical. The settings on record: 100 μM ATP, 1.25 μM His6-S6K, 2 hours at room temperature; read-out: TOR Kinase Median IC50.

Another experiment addresses PI3 Kinase. Briefly: PI3K fluorescence polarization assay. As to conditions: 25 μM ATP, diC8-PI(4,5)P2 substrate, 1 hour at 25° C.; read-out: PI3 Kinase Median IC50. It counts as biochemical.

Method for PI3 Kinase: Nunc 384 well black polypropylene fluorescent plates are used for PI3K assays. Reactions are quenched by the addition of EDTA to a final concentration of 10 mM. Final reaction volumes are 10 μl. […] Reactions are allowed to proceed for one hour at 25° C. After 1 hour, GST-tagged GRP1 (general receptor for phosphoinositides) PH domain fusion protein is added to a final concentration of 100 nM, and BODIPY-TMRI(1,3,4,5)P4 (Echelon) is also added to a final concentration of 5 nM. Final sample volumes are 25 μl with a final DMSO concentration of 0.8%. Assay Plates are read on Perkin-Elmer Envision plate readers with appropriate filters for Tamra [BODIPY-TMRI(1,3,4,5)P4].

The term IC50 denotes the concentration at which inhibition is half-maximal. On to `c1csc(-c2nc(N3CCOCC3)c3nc[nH]c3n2)c1` [Compound 1, 6-morpholin-4-yl-2-(2-thienyl)-9H-purine], for which the results for the IC50 on human TOR and on PI3 Kinase were 2.8 µM and 0.724 µM, respectively.
The like results for `c1nc2c(N3CCOCC3)nc(-c3ccsc3)nc2[nH]1` [Compound 2, 6-morpholin-4-yl-2-(3-thienyl)-9H-purine] were, in that order, 3.9 µM and 3.29 µM.
In the case of `Oc1ccccc1-c1nc(N2CCOCC2)c2nc[nH]c2n1` [Compound 3, 2-(6-morpholin-4-yl-9H-purin-2-yl)phenol], the half-maximal inhibitory concentration (IC50) on human TOR was found to be 2.5 µM.
Turning to `Oc1ccc(-c2nc(N3CCOCC3)c3nc[nH]c3n2)cc1` [Compound 4, 4-(6-morpholin-4-yl-9H-purin-2-yl)phenol], the IC50 is 0.45 µM on human TOR and 2.68 µM at PI3 Kinase.
Regarding `OCc1ccc(-c2nc(N3CCOCC3)c3nc[nH]c3n2)cc1` [Compound 5, [4-(6-morpholin-4-yl-9H-purin-2-yl)phenyl]methanol], the IC50 on human TOR came out at 4.5 µM; at PI3 Kinase, 3.75 µM.
Regarding `c1cc2cc(-c3nc(N4CCOCC4)c4nc[nH]c4n3)ccc2[nH]1` [Compound 6, 2-(1H-indol-5-yl)-6-morpholin-4-yl-9H-purine], the values for the IC50 at human TOR and on PI3 Kinase were 0.18 µM and 2.75 µM, respectively.
Regarding `c1nc2c(N3CCOCC3)nc(-c3ccc4c(c3)OCO4)nc2[nH]1` [Compound 7, 2-(1,3-benzodioxol-5-yl)-6-morpholin-4-yl-9H-purine], the IC50 was 8.9 µM on human TOR and 1.23 µM on PI3 Kinase.
Regarding `O=[N+]([O-])c1cccc(-c2nc(N3CCOCC3)c3nc[nH]c3n2)c1` [Compound 8, 6-morpholin-4-yl-2-(3-nitrophenyl)-9H-purine], the IC50 at PI3 Kinase was determined as 8.9 µM.
On the same count and under the same terms, the value for `c1ccc2c(-c3nc(N4CCOCC4)c4nc[nH]c4n3)csc2c1` [Compound 9, 2-(1-benzothien-3-yl)-6-morpholin-4-yl-9H-purine] was 2 µM; that for `FC(F)(F)c1cccc(-c2nc(N3CCOCC3)c3nc[nH]c3n2)c1` [Compound 10, 6-morpholin-4-yl-2-[3-(trifluoromethyl)phenyl]-9H-purine] was 5.71 µM.
With `Cc1cccc(-c2nc(N3CCOCC3)c3nc[nH]c3n2)c1` [Compound 11, 2-(3-methylphenyl)-6-morpholin-4-yl-9H-purine], the IC50 at PI3 Kinase was 4.21 µM.
Turning to `CC(C)c1cccc(-c2nc(N3CCOCC3)c3nc[nH]c3n2)c1` [Compound 12, 2-(3-isopropylphenyl)-6-morpholin-4-yl-9H-purine], on PI3 Kinase, the IC50 was found to be 9.92 µM.
Consider `N#Cc1cccc(-c2nc(N3CCOCC3)c3nc[nH]c3n2)c1` [Compound 13, 3-(6-morpholin-4-yl-9H-purin-2-yl)benzonitrile], for which the IC50 on PI3 Kinase turned out to be 3.59 µM.
Consider `c1ccc(-c2cccc(-c3nc(N4CCOCC4)c4nc[nH]c4n3)c2)cc1` [Compound 14, 2-biphenyl-3-yl-6-morpholin-4-yl-9H-purine], for which, on PI3 Kinase, the half-maximal inhibitory concentration (IC50) is 4.44 µM.
On to `c1ccc(Oc2ccccc2-c2nc(N3CCOCC3)c3nc[nH]c3n2)cc1` [Compound 16, 6-morpholin-4-yl-2-(2-phenoxyphenyl)-9H-purine], for which, at PI3 Kinase, the half-maximal inhibitory concentration (IC50) came out at 8.94 µM.
With `CN(C)C(=O)c1ccc(-c2nc(N3CCOCC3)c3nc[nH]c3n2)cc1` [Compound 17, N,N-dimethyl-4-(6-morpholin-4-yl-9H-purin-2-yl)benzamide], at PI3 Kinase, the IC50 worked out at 5.93 µM.
Still for that read-out and setting: in the case of `c1nc2c(N3CCOCC3)nc(-c3ccoc3)nc2[nH]1` [Compound 19, 2-(3-furyl)-6-morpholin-4-yl-9H-purine] it was 4.34 µM; in that of `Oc1cccc(-c2nc(N3CCCCC3)c3nc[nH]c3n2)c1` [Compound 21, 3-(6-Piperidin-1-yl-9H-purin-2-yl)-phenol], 4.3 µM.
With `CS(=O)(=O)c1ccc(-c2nc(N3CCOCC3)c3nc[nH]c3n2)cc1` [Compound 22, 2-(4-Methanesulfonyl-phenyl)-6-morpholin-4-yl-9H-purine], the IC50 on PI3 Kinase was 2.17 µM.
Regarding `COc1cc(COc2cccc(-c3nc(N4CCOCC4)c4nc[nH]c4n3)c2)cc(OC)c1` [Compound 23, 2-[3-(3,5-Dimethoxy-benzyloxy)-phenyl]-6-morpholin-4-yl-9H-purine], the IC50 at human TOR was 16.5 µM; on PI3 Kinase, 6.2 µM.
Consider `Clc1cc(-c2nc(N3CCOCC3)c3nc[nH]c3n2)ccc1OCc1ccccc1` [Compound 24, 2-(4-Benzyloxy-3-chloro-phenyl)-6-morpholin-4-yl-9H-purine], for which the IC50 is more than 20 µM at human TOR and 4.53 µM at PI3 Kinase.
As for `OCc1cccc(-c2nc(N3CCOCC3)c3ncn(C4CCNCC4)c3n2)c1` [Compound 25, [3-(6-Morpholin-4-yl-9-piperidin-4-yl-9H-purin-2-yl)-phenyl]-methanol], the concentration for half-maximal inhibition (IC50) came to 7.2 µM at human TOR and 0.057 µM on PI3 Kinase.
The like results for `CC(=O)N1CCC(n2cnc3c(N4CCOCC4)nc(-c4cccc(CO)c4)nc32)CC1` [Compound 26, 1-(4-(2-(3-(hydroxymethyl)phenyl)-6-morpholino-9H-purin-9-yl)piperidin-1-yl)ethanone] were, in that order, 2.1 µM and 0.189 µM.
For `Oc1cccc(-c2nc(N3CCOCC3)c3ncn(CC4CCN(Cc5ccccc5)CC4)c3n2)c1` [Compound 27, 3-(9-((1-benzylpiperidin-4-yl)methyl)-6-morpholino-9H-purin-2-yl)phenol], the results for the concentration for half-maximal inhibition (IC50) on human TOR and at PI3 Kinase were 0.6 µM and 0.193 µM, respectively.
Consider `Oc1cccc(-c2nc(N3CCOCC3)c3ncn(C4CCN(Cc5ccccc5)CC4)c3n2)c1` [Compound 28, 3-(9-(1-benzylpiperidin-4-yl)-6-morpholino-9H-purin-2-yl)phenol], for which, at human TOR, the 50% inhibitory concentration (IC50) came out at 0.14 µM.
As for `OCc1cccc(-c2nc(N3CCOCC3)c3ncn(CC4CCN(Cc5ccccc5)CC4)c3n2)c1` [Compound 29, (3-(9-((1-benzylpiperidin-4-yl)methyl)-6-morpholino-9H-purin-2-yl)phenyl)methanol], the concentration for half-maximal inhibition (IC50) at human TOR came out at 10.5 µM; on PI3 Kinase, 0.243 µM.
`OCc1cccc(-c2nc(N3CCOCC3)c3ncn(C4CCN(Cc5ccccc5)CC4)c3n2)c1` [Compound 33, {3-[9-(1-benzylpiperidin-4-yl)-6-morpholin-4-yl-9H-purin-2-yl]phenyl}methanol]: the IC50 at human TOR worked out at 0.7 µM.
As for `O=Cc1cncc(-c2nc(N3CCOCC3)c3ncn(C4CCN(Cc5ccccc5)CC4)c3n2)c1` [Compound 34, 5-[9-(1-benzylpiperidin-4-yl)-6-morpholin-4-yl-9H-purin-2-yl]nicotinaldehyde], the results for the IC50 at human TOR and at PI3 Kinase were 0.17 µM and 0.077 µM, respectively.
Regarding `OCc1cncc(-c2nc(N3CCOCC3)c3ncn(C4CCN(Cc5ccccc5)CC4)c3n2)c1` [Compound 35, {5-[9-(1-benzylpiperidin-4-yl)-6-morpholin-4-yl-9H-purin-2-yl]pyridin-3-yl}methanol], the concentration for half-maximal inhibition (IC50) at human TOR stood at 1 µM; at PI3 Kinase, 0.063 µM.
Take `Oc1cncc(-c2nc(N3CCOCC3)c3ncn(C4CCNCC4)c3n2)c1` [Compound 36, 5-(6-morpholin-4-yl-9-piperidin-4-yl-9H-purin-2-yl)pyridin-3-ol]: the IC50 amounted to 0.97 µM on human TOR and 0.014 µM on PI3 Kinase.
Consider `Cc1ccc(CN2CCC(n3cnc4c(N5CCOCC5)nc(-c5cncc(O)c5)nc43)CC2)s1` [Compound 37, 5-(9-{1-[(5-methyl-2-thienyl)methyl]piperidin-4-yl}-6-morpholin-4-yl-9H-purin-2-yl)pyridin-3-ol], for which the results for the half-maximal inhibitory concentration (IC50) at human TOR and on PI3 Kinase were 0.14 µM and 0.026 µM, respectively.
As for `Oc1cncc(-c2nc(N3CCOCC3)c3ncn(C4CCN(Cc5ccc(Cl)cc5)CC4)c3n2)c1` [Compound 38, 5-{9-[1-(4-chlorobenzyl)piperidin-4-yl]-6-morpholin-4-yl-9H-purin-2-yl}pyridin-3-ol], at human TOR, the 50% inhibitory concentration (IC50) amounted to 0.16 µM.
Consider `Oc1cncc(-c2nc(N3CCOCC3)c3ncn(C4CCN(Cc5ccc[nH]5)CC4)c3n2)c1` [Compound 39, 5-{6-morpholin-4-yl-9-[1-(1H-pyrrol-2-ylmethyl)piperidin-4-yl]-9H-purin-2-yl}pyridin-3-ol], for which the IC50 at human TOR was found to be 0.94 µM; on PI3 Kinase, 0.031 µM.
`Cc1ccc(CN2CCC(n3cnc4c(N5CCOCC5)nc(-c5cncc(O)c5)nc43)CC2)cc1` [Compound 40, 5-{9-[1-(4-methylbenzyl)piperidin-4-yl]-6-morpholin-4-yl-9H-purin-2-yl}pyridin-3-ol]: the IC50 at human TOR came out at 0.59 µM.
Turning to `OCc1cccc(-c2nc(N3CCOCC3)c3ncn(C4CCN(Cc5ccc(-c6ccncc6)cc5)CC4)c3n2)c1` [Compound 47, (3-{6-morpholin-4-yl-9-[1-(4-pyridin-4-ylbenzyl)piperidin-4-yl]-9H-purin-2-yl}phenyl)methanol], the half-maximal inhibitory concentration (IC50) at human TOR amounted to 0.72 µM.
Regarding `OCc1cccc(-c2nc(N3CCOCC3)c3ncn(C4CCN(Cc5ccccc5)CC4)c3n2)c1` [Compound 51, {3-[9-(1-benzylpiperidin-4-yl)-6-morpholin-4-yl-9H-purin-2-yl]phenyl}methanol], the 50% inhibitory concentration (IC50) on human TOR stood at 1 µM.
For the molecule `COc1cccc(-c2nc(N3CCOCC3)c3nc[nH]c3n2)c1` [Compound 53, 4-(2-(3-methoxyphenyl)-9H-purin-6-yl)morpholine], at human TOR, the half-maximal inhibitory concentration (IC50) was more than 20 µM.
For the molecule `c1ccc(-c2nc(N3CCOCC3)c3nc[nH]c3n2)cc1` [Compound 54, 4-(2-phenyl-9H-purin-6-yl)morpholine], at human TOR, the half-maximal inhibitory concentration (IC50) stood at 19 µM.
In the case of `Oc1cccc(-c2nc(N3CCOCC3)c3nc[nH]c3n2)c1` [Compound 55, 3-(6-morpholino-9H-purin-2-yl)phenol], at human TOR, the half-inhibitory concentration (IC50) is 2.12 µM.
As for `Oc1cccc(-c2nc(N3CCOCC3)c3ncn(C4CCN(Cc5cccnc5)CC4)c3n2)c1` [Compound 76, 3-{6-morpholin-4-yl-9-[1-(pyridin-3-ylmethyl)piperidin-4-yl]-9H-purin-2-yl}phenol], the IC50 on human TOR was determined as 0.17 µM.
`Oc1cccc(-c2nc(N3CCOCC3)c3ncn(C4CCN(Cc5ccc(Br)nc5)CC4)c3n2)c1` [Compound 81, 3-(9-{1-[(6-bromopyridin-3-yl)methyl]piperidin-4-yl}-6-morpholin-4-yl-9H-purin-2-yl)phenol]: the IC50 at human TOR amounted to 0.12 µM.
